From PubChem BioAssay (NCI)
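48-hour exposure; five concentrations; linearly interpolated endpoints. Here, GI50 denotes the concentration required for 50% inhibition of growth. TGI: concentration producing complete growth inhibition.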

How the values were obtained:
Test in all cases: DTP human tumour cell line panel, 48 h
786-0 renal = tested on: 786-0 renal
A498 renal = tested on: A498 renal
A549 NSCLC = tested on: A549 NSCLC
ACHN renal = tested on: ACHN renal
BT-549 breast = tested on: BT-549 breast
CAKI-1 renal = tested on: CAKI-1 renal
CCRF-CEM leukemia = tested on: CCRF-CEM leukemia
COLO 205 colon = tested on: COLO 205 colon
DU-145 prostate = tested on: DU-145 prostate
EKVX NSCLC = tested on: EKVX NSCLC
HCC-2998 colon = tested on: HCC-2998 colon
HCT-116 colon = tested on: HCT-116 colon
HCT-15 colon = tested on: HCT-15 colon
HOP-62 NSCLC = tested on: HOP-62 NSCLC
HOP-92 NSCLC = tested on: HOP-92 NSCLC
HS 578T breast = tested on: HS 578T breast
HT29 colon = tested on: HT29 colon
IGROV1 ovarian = tested on: IGROV1 ovarian
K-562 leukemia = tested on: K-562 leukemia
KM12 colon = tested on: KM12 colon
LOX IMVI melanoma = tested on: LOX IMVI melanoma
M14 melanoma = tested on: M14 melanoma
MALME-3M melanoma = tested on: MALME-3M melanoma
MCF7 breast = tested on: MCF7 breast
MDA-MB-231 breast = tested on: MDA-MB-231 breast
MDA-MB-435 = tested on: MDA-MB-435
MDA-MB-468 breast = tested on: MDA-MB-468 breast
MOLT-4 leukemia = tested on: MOLT-4 leukemia
NCI-H226 lung = tested on: NCI-H226 lung
NCI-H23 lung = tested on: NCI-H23 lung
NCI-H460 lung = tested on: NCI-H460 lung
NCI-H522 lung = tested on: NCI-H522 lung
NCI/ADR-RES ovarian = tested on: NCI/ADR-RES ovarian
OVCAR-3 ovarian = tested on: OVCAR-3 ovarian
OVCAR-4 ovarian = tested on: OVCAR-4 ovarian
OVCAR-5 ovarian = tested on: OVCAR-5 ovarian
OVCAR-8 ovarian = tested on: OVCAR-8 ovarian
PC-3 prostate = tested on: PC-3 prostate
RPMI-8226 leukemia = tested on: RPMI-8226 leukemia
RXF 393 renal = tested on: RXF 393 renal
SF-268 CNS = tested on: SF-268 CNS
SF-295 CNS = tested on: SF-295 CNS
SF-539 CNS = tested on: SF-539 CNS
SK-MEL-2 melanoma = tested on: SK-MEL-2 melanoma
SK-MEL-28 melanoma = tested on: SK-MEL-28 melanoma
SK-MEL-5 melanoma = tested on: SK-MEL-5 melanoma
SK-OV-3 ovarian = tested on: SK-OV-3 ovarian
SN12C renal = tested on: SN12C renal
SNB-19 CNS = tested on: SNB-19 CNS
SNB-75 CNS = tested on: SNB-75 CNS
SR leukemia = tested on: SR leukemia
SW-620 colon = tested on: SW-620 colon
T-47D breast = tested on: T-47D breast
TK-10 renal = tested on: TK-10 renal
U251 CNS = tested on: U251 CNS
UACC-257 melanoma = tested on: UACC-257 melanoma
UACC-62 melanoma = tested on: UACC-62 melanoma
UO-31 renal = tested on: UO-31 renal

**Q.** Which results are given for `Fc1ccc(F)c(CNc2nc(SCCN3CCOCC3)nc3c2cnn3CC(Cl)c2ccc(Br)cc2)c1` (stereo unspecified)?
**A.** GI50 (786-0 renal): 2.62 µM; TGI (786-0 renal): 17.3 µM; GI50 (A498 renal): 4.2 µM; TGI (A498 renal): > 100 µM; GI50 (A549 NSCLC): 3.09 µM; TGI (A549 NSCLC): > 100 µM; GI50 (ACHN renal): 3.65 µM; TGI (ACHN renal): > 100 µM; GI50 (BT-549 breast): 2.38 µM; TGI (BT-549 breast): 5.96 µM; GI50 (CAKI-1 renal): 3.66 µM; TGI (CAKI-1 renal): > 100 µM; GI50 (CCRF-CEM leukemia): 2.81 µM; TGI (CCRF-CEM leukemia): > 100 µM; GI50 (COLO 205 colon): 2.13 µM; TGI (COLO 205 colon): 4.98 µM; GI50 (DU-145 prostate): 6.12 µM; TGI (DU-145 prostate): > 100 µM; GI50 (EKVX NSCLC): 3.9 µM; TGI (EKVX NSCLC): > 100 µM; GI50 (HCC-2998 colon): 4.13 µM; TGI (HCC-2998 colon): > 100 µM; GI50 (HCT-116 colon): 2.61 µM; TGI (HCT-116 colon): > 100 µM; GI50 (HCT-15 colon): 1.76 µM; TGI (HCT-15 colon): 6.15 µM; GI50 (HOP-62 NSCLC): 6.31 µM; TGI (HOP-62 NSCLC): > 100 µM; GI50 (HOP-92 NSCLC): 3.03 µM; TGI (HOP-92 NSCLC): 23.9 µM; GI50 (HS 578T breast): 2.6 µM; TGI (HS 578T breast): > 100 µM; GI50 (HT29 colon): 1.14 µM; TGI (HT29 colon): 2.68 µM; GI50 (IGROV1 ovarian): 5.03 µM; TGI (IGROV1 ovarian): > 100 µM; GI50 (K-562 leukemia): 1.77 µM; TGI (K-562 leukemia): > 100 µM; GI50 (KM12 colon): 3.72 µM; TGI (KM12 colon): > 100 µM; GI50 (LOX IMVI melanoma): 2.5 µM; TGI (LOX IMVI melanoma): 7.65 µM; GI50 (M14 melanoma): 3.21 µM; TGI (M14 melanoma): > 100 µM; GI50 (MALME-3M melanoma): 1.89 µM; TGI (MALME-3M melanoma): 5.15 µM; GI50 (MCF7 breast): 2.5 µM; TGI (MCF7 breast): 8.54 µM; GI50 (MDA-MB-231 breast): 3.11 µM; TGI (MDA-MB-231 breast): 18.6 µM; GI50 (MDA-MB-435): 2.91 µM; TGI (MDA-MB-435): 10.4 µM; GI50 (MDA-MB-468 breast): 1.96 µM; TGI (MDA-MB-468 breast): 4.88 µM; GI50 (MOLT-4 leukemia): 2.58 µM; TGI (MOLT-4 leukemia): > 100 µM; GI50 (NCI-H226 lung): 2.63 µM; TGI (NCI-H226 lung): 8.3 µM; GI50 (NCI-H23 lung): 4.91 µM; TGI (NCI-H23 lung): > 100 µM; GI50 (NCI-H460 lung): 3.52 µM; TGI (NCI-H460 lung): > 100 µM; GI50 (NCI-H522 lung): 3.51 µM; TGI (NCI-H522 lung): 91.3 µM; GI50 (NCI/ADR-RES ovarian): 3.13 µM; TGI (NCI/ADR-RES ovarian): > 100 µM; GI50 (OVCAR-3 ovarian): 5.71 µM; TGI (OVCAR-3 ovarian): > 100 µM; GI50 (OVCAR-4 ovarian): 3.22 µM; TGI (OVCAR-4 ovarian): > 100 µM; GI50 (OVCAR-5 ovarian): 4.59 µM; TGI (OVCAR-5 ovarian): > 100 µM; GI50 (OVCAR-8 ovarian): 3.77 µM; TGI (OVCAR-8 ovarian): > 100 µM; GI50 (PC-3 prostate): 2.63 µM; TGI (PC-3 prostate): 62.6 µM; GI50 (RPMI-8226 leukemia): 2.66 µM; TGI (RPMI-8226 leukemia): > 100 µM; GI50 (RXF 393 renal): 1.41 µM; TGI (RXF 393 renal): 4.83 µM; GI50 (SF-268 CNS): 4.27 µM; TGI (SF-268 CNS): > 100 µM; GI50 (SF-295 CNS): 3.34 µM; TGI (SF-295 CNS): > 100 µM; GI50 (SF-539 CNS): 3.57 µM; TGI (SF-539 CNS): > 100 µM; GI50 (SK-MEL-2 melanoma): 2.04 µM; TGI (SK-MEL-2 melanoma): 5.04 µM; GI50 (SK-MEL-28 melanoma): 2.84 µM; TGI (SK-MEL-28 melanoma): > 100 µM; GI50 (SK-MEL-5 melanoma): 1.62 µM; TGI (SK-MEL-5 melanoma): 3.01 µM; GI50 (SK-OV-3 ovarian): 8.7 µM; TGI (SK-OV-3 ovarian): > 100 µM; GI50 (SN12C renal): 3.22 µM; TGI (SN12C renal): > 100 µM; GI50 (SNB-19 CNS): 5.34 µM; TGI (SNB-19 CNS): > 100 µM; GI50 (SNB-75 CNS): 2.28 µM; TGI (SNB-75 CNS): > 100 µM; GI50 (SR leukemia): 3.63 µM; TGI (SR leukemia): > 100 µM; GI50 (SW-620 colon): 2.78 µM; TGI (SW-620 colon): 13.8 µM; GI50 (T-47D breast): 2.81 µM; TGI (T-47D breast): 38.1 µM; GI50 (TK-10 renal): 5.24 µM; TGI (TK-10 renal): > 100 µM; GI50 (U251 CNS): 3.77 µM; TGI (U251 CNS): > 100 µM; GI50 (UACC-257 melanoma): 3.25 µM; TGI (UACC-257 melanoma): 65 µM; GI50 (UACC-62 melanoma): 1.75 µM; TGI (UACC-62 melanoma): 3.73 µM; GI50 (UO-31 renal): 2.87 µM; TGI (UO-31 renal): > 100 µM
